# Laboratory results from patent US11767295B2, “Isoindole derivative” (TIANJIN HEMAY PHARMACEUTICAL CO., LTD., priority 2018, dated 2023).
# Key:
# Format in all cases: in vivo
# ICR mice = test: Acute toxicity test of single gavage in mice (Biological Example 9); conditions: single gavage 2000 mg/Kg; for Clinical observation: appearance, breath, behavior, reflex and defecation / Dissection and general observation of each organ / Organ indexes / Death of animals: ICR mice; for Clinical observation: appearance, breath, behavior, reflex and defecation: male and female; for Death of animals: 3 male and 3 female, until the end of the test
# Protocol: 30 healthy ICR mice of SPF grade were randomly divided into 5 groups according to the gender segment, in which 15 mice were male and 15 mice were female. There were 3 mice/gender/group. There were 6 mice in each group, in which 3 mice were male and 3 mice were female.
# Single administration by gavage was carried out. The symptoms and responses of all the animals were observed after the administration and were recorded faithfully. The test was observed continuously for 15 days. The symptoms of the animals were recorded. After the test, the tissues and organs of all the animals were weighed, observed and recorded. The specimens were kept.
# Body weight, appearance, breath, behavior, reflex and defecation.
# [1] = system: DNCB-induced atopic dermatitis in Balb/c mice; test: Efficacy evaluation test of DNCB-induced atopic dermatitis in Balb/c mice model (Biological Example 1); conditions: BID × 10
# Protocol: 60 healthy male SPF Balb/c mice, each of which the body weight was 19-21 g, were randomly divided into 6 groups by body weight. There were 10 mice in each group.
# (§1) Before the test, the hair around the right ear of the mouse was removed to reduce the interference in the drug adhesion to the hair.
# The start of the test was recorded as Day 1. The specific time for measuring ear thickness was slightly adjusted based on FIG. 1. After the end of the 18th day of the test, blood was taken from each animal to detect the concentration of immunoglobulin (IgE) in the serum (in accordance with the kit instructions). Both ears of the animal were cut off. Ear pieces were cut by an 8 mm punch at the fixed position of the ears and weighed. Differences in the swelling degrees of two ears were calculated.
# The changes in mouse ear thickness and the ear weights of the same area and the IgE concentrations in the serum among different groups on the 18th day were analyzed and compared statistically with One-Way Anova in SPSS 17, respectively. The G test method was used to delete outliers. p<0.05 indicated there were statistical differences. Ear swelling degree (mg)=right ear weight (mg)−left ear weight (mg); Ear thickness change (mm)=right ear thickness (mm)−left ear thickness (mm); Inhibitory rate of ear swelling degree (%)=1−(ear swelling degree of drug administration group−ear swelling degree of blank control group)/(ear swelling degree of model control group−ear swelling degree of blank control group)×100%; Inhibitory rate of ear thickness change (%)=1−(ear thickness change of drug administration group−ear thickness change of blank control group)/(ear thickness change of model control group−ear thickness change of blank control group)×100%; Inhibitory rate of IgE (%)=1−(IgE concentration in administration group−IgE concentration in blank control group)/(IgE concentration in model control group−IgE concentration in blank control group)×100%.
# [2] = system: Phorbol ester (TPA)-induced ear swelling in mice; test: Inhibition of phorbol ester (TPA)-induced ear swelling in mice (Biological Example 5); conditions: ICR mice, 5 hours after TPA modeling; for Ear Swelling Rate / Inhibitory Rate of Ear Swelling Degree: 2 mg/mouse on right ear; for Ear Swelling Rate: (right−left)/left ear weight; for Inhibitory Rate of Ear Swelling Degree: vs model and blank control; for Ear Swelling Degree: 50 mg/mL in acetone, 40 μL in 2 administrations (2 mg/mouse)
# Protocol: (§2) 72 male ICR mice were selected and divided into 9 groups. There were 8 mice in each group.
# (§3) Before the test, the animals were grouped and the hair around the right ear of the mice was removed.
# (§4) 20 μL of respective drug was applied to the animals in each test group (a blank solvent was applied to the model control group). Modeling and induction were carried out after 1 h 10 min. Except for the blank group, 20 μL of TPA at a concentration of 125 μg/mL were applied to the right ears of the animals for induction. After induction for 10 minutes, 20 μL of respective drug were applied to the right ears of the animals in each test group (a blank solvent was applied to the model control group).
# After modeling for 5 hours, ear pieces of both sides on the same location of animals in each group were taken with a punch and weighed to calculate the ear swelling degree, ear swelling rate and inhibitory rate.
# The ear swelling degree and ear swelling rate after modeling and administration for 5 hours were analyzed and tested with One-Way ANOVA multiple-group test index in SPSS17.0. P<0.05 indicated there were statistical differences. Ear swelling degree (mg)=right ear weight (mg)−left ear weight (mg); Ear swelling rate (%)=(right ear weight−left ear weight)/left ear weight×100%; Inhibitory rate of ear swelling degree (%)=1−(ear swelling degree of drug administration group−ear swelling degree of blank control group)/(ear swelling degree of model control group−ear swelling degree of blank control group)×100%.
# [3] = system: DNCB-induced atopic dermatitis in Balb/c mice; test: Efficacy evaluation test of DNCB-induced atopic dermatitis in Balb/c mice model (Biological Example 2); conditions: BID × 10; for Inhibitory Rate of Ear Swelling / Weight Changes of Animals, Day 10 / Weight Changes of Animals, Day 17 / Weight Changes of Animals, Day 18 / Ear Swelling Degree / IgE Concentration / Inhibitory Rate of IgE Concentration: 1 mg/mouse on ear; for Inhibitory Rate of Ear Swelling / Ear Swelling Degree / IgE Concentration / Inhibitory Rate of IgE Concentration: 18th day; for Inhibitory Rate of Ear Swelling / Inhibitory Rate of IgE Concentration: vs model and blank control; for Weight Changes of Animals, Day 1 / Weight Changes of Animals, Day 10 / Weight Changes of Animals, Day 17 / Weight Changes of Animals, Day 18: Balb/c mice, Mean ± S.D.; for Weight Changes of Animals, Day 1: 1 mg/mouse (50 mg/mL, 20 μL) on ear; for Ear Swelling Degree: right minus left ear piece weight; for IgE Concentration / Inhibitory Rate of IgE Concentration: serum
# Protocol: 70 healthy male SPF Balb/c mice, each of which the weight was 19-21 g, were randomly divided into 7 groups by body weight. There were 10 mice in each group.
# as §1
# The start of the test was recorded as Day 1. After the end of the 18th day of the test, blood was taken from each animal to detect the concentration of immunoglobulin (IgE) in the serum (in accordance with the kit instructions). Both ears of the animal were cut off. Ear pieces were cut by an 8 mm punch at the fixed position of the ears and weighed. Differences in the swelling degrees of two ears were calculated.
# The IgE concentrations in the serum of different groups on the 18th day were analyzed and compared statistically with One-Way Anova in SPSS 17, respectively. The G test method was used to delete outliers. p<0.05 indicated there were statistical differences. Ear swelling degree (mg)=right ear weight (mg)−left ear weight (mg); Inhibitory rate of ear swelling degree (%)=1−(ear swelling degree of drug administration group−ear swelling degree of blank control group)/(ear swelling degree of model control group−ear swelling degree of blank control group)×100%; Inhibitory rate of IgE (%)=1−(IgE concentration in administration group−IgE concentration in blank control group)/(IgE concentration in model control group−IgE concentration in blank control group)×100%.
# [4] = system: Phorbol ester (TPA)-induced ear swelling in mice; test: Inhibition of phorbol ester (TPA)-induced ear swelling in mice (Biological Example 6); conditions: ICR mice, 5 hours after TPA modeling
# Protocol: as §2, §3, §4
# After modeling for 5 hours, ear pieces of both sides at the same location of animals in each group were taken with a punch and weighed to calculate the ear swelling degree, ear swelling rate and inhibitory rate.
# The ear swelling degree and ear swelling rate after modeling and administration for 5 hours were analyzed and tested with One-Way ANOVA multiple-group test index in SPSS17.0. […] Ear swelling degree (mg)=right ear weight (mg)−left ear weight (mg); Ear swelling rate (%)=(right ear weight−left ear weight)/left ear weight×100%; Inhibitory rate of ear swelling degree (%)=1−(swelling degree of drug administration group−swelling degree of blank control group)/(swelling degree of model control group−swelling degree of blank control group)×100%.
# [5] = Balb/c mice, 1 mg/mouse on ear, Day 10, Mean ± S.D.
# [6] = Balb/c mice, 1 mg/mouse on ear, Day 17, Mean ± S.D.
# [7] = Balb/c mice, 1 mg/mouse on ear, Day 18, Mean ± S.D.
# [8] = female ICR mice, observed 15 days
# [9] = female ICR mice, end of the test
# [10] = surviving male ICR mice, end of the experiment
SMILES,"Clinical observation: appearance, breath, behavior, reflex and defecation (ICR mice; observed 15 days)",Dissection and general observation of each organ (ICR mice; end of the test),Organ indexes (ICR mice; end of the test),Ear Swelling Rate [2],Inhibitory Rate of Ear Swelling Degree [2],Ear Swelling Degree [2],"Clinical observation, female animals (ICR mice; [8])",Death of animals (ICR mice),Inhibitory Rate of Ear Swelling [3],"Weight Changes of Animals, Day 1 [3]","Weight Changes of Animals, Day 10 [3]","Weight Changes of Animals, Day 17 [3]","Weight Changes of Animals, Day 18 [3]",Ear Swelling Degree [3],IgE Concentration [3],Inhibitory Rate of IgE Concentration [3],other results
"CCCOC(=O)CC(c1ccc(OC)c(OCC)c1)N1C(=O)c2cccc(NC(C)=O)c2C1=O (stereo not shown) [Example 11, propyl 3-(4-acetamido-1,3-dioxoisoindolin-2-yl)-3-(3-ethoxy-4-methoxyphenyl)propionate]","No obvious abnormalities of appearance, breath, behavior,",No obvious abnormalities related to the compounds were,No obvious abnormalities of organ indexes were observed.,46.3 ± 35.7 %,81.7%,6.5 ± 5.0 mg,,,,,,,,,,,"Inhibitory Rate of Ear Swelling Degree ([1]; 1 mg/mouse on ear, 18th day, vs model and blank control): 49.2%; Weight Changes of Animals, Day 1 ([1]; Balb/c mice, 1 mg/mouse (50 mg/mL, 20 μL) on ear, Day 1, Mean ± S.D.): 20.3 ± 1.3 g; Inhibitory Rate of Ear Thickness ([1]; Balb/c mice, 1 mg/mouse on ear, 18th day, vs model and blank control): 51.5%; Ear Thickness Change, Day 1 ([1]; Balb/c mice, 1 mg/mouse on ear, Day 1, Mean ± S.D.): 0.22 ± 0.01 mm; Ear Thickness Change, Day 10 [1, 5]: 0.33 ± 0.09 mm; Weight Changes of Animals, Day 10 [1, 5]: 21.6 ± 1.1 g; Ear Thickness Change, Day 17 [1, 6]: 0.35 ± 0.04 mm; Weight Changes of Animals, Day 17 [1, 6]: 21.2 ± 1.2 g; Ear Thickness Change, Day 18 [1, 7]: 0.48 ± 0.06 mm; Weight Changes of Animals, Day 18 [1, 7]: 21.1 ± 1.3 g; Ear Thickness ([1]; Table 4, Balb/c mice, 1 mg/mouse on ear, 18th day): 0.48 ± 0.06 mm; Ear Swelling Degree ([1]; right minus left ear piece weight (8 mm punch), 1 mg/mouse on ear, 18th day): 12.8 ± 4.9 mg; IgE Concentration ([1]; serum, 1 mg/mouse on ear, 18th day): 5854.5 ± 2631.7 ng/mL; Inhibitory Rate of IgE Concentration ([1]; serum, 1 mg/mouse on ear, 18th day, vs model and blank control): 36.5%"
"CCOc1ccc(C(CC(=O)OC)N2C(=O)c3cccc(NC(C)=O)c3C2=O)cc1OCC (stereo not shown) [Example 4, methyl 3-(4-acetamido-1,3-dioxoisoindolin-2-yl)-3-(3,4-diethoxyphenyl)propionate]",,,,34.3 ± 18.2 %,88.8%,4.8 ± 2.1 mg,"After administration, no abnormalities of female animals",,,,,,,,,,"Clinical observation, male animals (ICR mice; male ICR mice, observed 15 days): The male animals had reduced activity and recovered after"
"COC(=O)C[C@@H](c1ccc(OC)c(OC(C)C)c1)N1C(=O)c2cccc(NC(C)=O)c2C1=O [Example 54, methyl (S)-3-(4-acetamido-1,3-dioxoisoindolin-2-yl)-3-(3-isopropoxy-4-methoxyphenyl)propionate]",The main symptom after administration was reduced,,,,,,,activity. No death or abnormality of animals was observed,43.1%,21.6 ± 0.6 g,22.6 ± 0.8 g,23.3 ± 1.2 g,23.1 ± 1.2 g,16.7 ± 3.0 mg,4873.7 ± 1356.2 ng/mL,45.9%,
"CCOC(=O)C[C@@H](c1ccc(OC)c(OCC)c1)N1C(=O)c2cccc(NC(C)=O)c2C1=O [Example 52, ethyl (S)-3-(4-acetamido-1,3-dioxoisoindolin-2-yl)-3-(3-ethoxy-4-methoxyphenyl)propionate]",,,,,,,No obvious abnormalities in female animals were observed,1 male animal died in the second day of the test. It was,60.1%,21.8 ± 0.5 g,22.6 ± 0.9 g,24.3 ± 5.6 g,24.2 ± 6.0 g,12.0 ± 5.4 mg,4141.5 ± 2315.0 ng/mL,55.5%,"Gross anatomy, female animals (ICR mice; [9]): until the end of the test. No abnormalities of gross anatomy; Organ indexes, female animals (ICR mice; [9]): until the end of the test. No abnormalities of gross anatomy; Gross anatomy, male animals (ICR mice; [10]): observed until the end of the experiment. No abnormalities; Organ indexes, male animals (ICR mice; [10]): observed until the end of the experiment. No abnormalities"
"CCCOc1ccc(C(CC(=O)OC)N2C(=O)c3cccc(NC(C)=O)c3C2=O)cc1OCC (stereo not shown) [Example 31, methyl 3-(4-acetamido-1,3-dioxoisoindolin-2-yl)-3-(3-ethoxy-4-propoxyphenyl)propionate]","No obvious abnormalities of appearance, breath, behavior,",No obvious abnormalities related to the compounds were,No obvious abnormalities of organ indexes were observed.,,,,,,,,,,,,,,"Ear Swelling Rate ([4]; 2 mg/mouse on right ear, (right−left)/left ear weight): 34.3 ± 14.9 %; Inhibitory Rate of Ear Swelling Degree ([4]; 2 mg/mouse on right ear, vs model and blank control): 87.6%; Ear Swelling Degree ([4]; 50 mg/mL in acetone, 40 μL in 2 administrations (2 mg/mouse)): 4.9 ± 2.0 mg"
